What all share (assay type): biochemical
Experiment [1] has as its target T1, wt human JAK2, catalytic site (Homo sapiens, UniProt O60674).
T1 construct: wt human JAK2, catalytic site; purchased SignalChem
Kind of experiment: HTRF KinEASE assay, JAK2. As to conditions: assay format not given (Z'-LYTE or HTRF KinEASE); read-out: IC50, Activity Toward JAK2. On the procedure: Basic protocol for HTRF KinEASE assay (Cisbio/FRA) inhibitor studies involved two steps: • Enzymatic step: Addition of 4 μL of test compound in corresponding DMSO dilutions, 4 μL of kinase/substrate mixture, 2 μL of ATP into 384 well small volume plates. Incubation for at least 30 minutes at room temperature. • Detection step: Addition of 5 μL antibody and 5 μL streptavidin-XL665, read plate after 60 minutes. Data analysis of emission ratios according KinEASE assay protocol.
(§1) Kinase and assay components were adjusted to final concentrations according to kit protocol. For TYK2: 2 nM wt human TYK2, catalytic site (SignalChem/CAN), 1 μM HTRF KinEASE-TK Substrate-biotin, 1 μM ATP in 1× Kinase Buffer. For JAK1: 4 nM wt human JAK1, catalytic site (ThermoFisher/USA), 1 μM HTRF KinEASE-TK Substrate-biotin, 2.5 μM ATP in 1× Kinase Buffer. For JAK2: 1 nM wt human JAK2, catalytic site (SignalChem/CAN), 1 μM HTRF KinEASE-TK Substrate-biotin, 100 μM ATP in 1× Kinase Buffer.
as §1
Background: TR-FRET usually uses a lanthanide donor and a delayed reading to cut background.

The target of experiment [2] is T2, wt human JAK1, catalytic site (Homo sapiens, UniProt P23458).
T2 construct: wt human JAK1, catalytic site; purchased ThermoFisher
T2 sequence (P23458 875-1153 limits assumed): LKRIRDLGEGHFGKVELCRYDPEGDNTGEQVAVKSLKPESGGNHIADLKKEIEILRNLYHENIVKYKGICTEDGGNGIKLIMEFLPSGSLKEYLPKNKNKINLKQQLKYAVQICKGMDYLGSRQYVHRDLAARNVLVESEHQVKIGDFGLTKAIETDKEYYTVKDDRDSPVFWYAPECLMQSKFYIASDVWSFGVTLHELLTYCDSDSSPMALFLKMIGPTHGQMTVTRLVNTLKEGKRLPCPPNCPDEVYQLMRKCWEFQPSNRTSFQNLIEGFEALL
Description: HTRF KinEASE assay, JAK1. The settings on record: 2.5 μM ATP; read-out: IC50, Activity Toward JAK1. In a few lines: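 Compounds in DMSO dilution were mixed with kinase, biotin-TK substrate and ATP and reacted for ≥30 min at room temperature. Detection reagents (antibody, streptavidin-XL665) were read 60 min later as HTRF, with emission ratios analysed per KinEASE protocol.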

Experiment [3] concerns the target T3, wt human TYK2, catalytic site (Homo sapiens, UniProt P29597).
T3 construct: wt human TYK2, catalytic site; purchased SignalChem
T3 sequence (P29597 897-1176 limits assumed): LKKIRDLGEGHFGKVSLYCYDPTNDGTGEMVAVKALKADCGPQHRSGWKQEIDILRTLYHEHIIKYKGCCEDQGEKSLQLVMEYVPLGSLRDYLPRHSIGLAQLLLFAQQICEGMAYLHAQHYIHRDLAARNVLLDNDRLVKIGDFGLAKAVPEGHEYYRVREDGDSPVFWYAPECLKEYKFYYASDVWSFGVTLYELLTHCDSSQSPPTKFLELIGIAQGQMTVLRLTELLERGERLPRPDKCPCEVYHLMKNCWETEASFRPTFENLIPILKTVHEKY
Kind of experiment: HTRF KinEASE assay, TYK2. As to conditions: 1 μM ATP; read-out: IC50, Activity Toward TYK2. Summed up:
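Kinase reaction run at room temperature for at least 30 min: 2 nM TYK2 with 1 μM ATP, or 1 nM JAK2 with 100 μM ATP, each with 1 μM biotin-TK substrate. Phosphorylation detected by HTRF (60 min antibody/XL665) and evaluated from emission ratios.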

Structures are written as SMILES.

A word on the IC50: it is the concentration needed to halve the response being measured.

T1 sequence (O60674 849-1124 limits assumed): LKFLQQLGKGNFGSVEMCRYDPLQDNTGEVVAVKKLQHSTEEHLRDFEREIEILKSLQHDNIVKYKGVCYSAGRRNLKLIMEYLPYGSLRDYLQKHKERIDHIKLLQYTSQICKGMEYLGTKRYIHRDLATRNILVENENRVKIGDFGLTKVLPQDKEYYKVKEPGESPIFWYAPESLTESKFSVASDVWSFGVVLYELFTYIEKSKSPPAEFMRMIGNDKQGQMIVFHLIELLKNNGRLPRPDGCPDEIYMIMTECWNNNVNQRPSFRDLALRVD

`NC(=O)c1nn(-c2c(F)ccc(F)c2Cl)nc1Nc1ccc(C(=O)N2CC[C@@H](F)C2)cc1` [compound 147, (R)-2-(2-chloro-3,6-difluorophenyl)-5-((4-(3-fluoropyrrolidine-1-carbonyl)phenyl)amino)-2H-1,2,3-triazole-4-carboxamide]: the IC50 in experiment [1] is 100 to 1000 nM; in experiment [2], below 10 nM; in experiment [3], 10 to 100 nM.
Regarding `CC(C)n1ncnc1-c1ccc(Nc2cn(-c3c(Cl)cccc3Cl)nc2C(N)=O)cc1` [compound 90, 1-(2,6-dichlorophenyl)-4-((4-(1-isopropyl-1H-1,2,4-triazol-5-yl)phenyl)amino)-1H-pyrazole-3-carboxamide], the IC50 in experiment [1] was in the range of 100 to 1000 nM; in experiment [2], 100 to 1000 nM; in experiment [3], 10 to 100 nM.
For the compound `NC(=O)c1nn(-c2c(Cl)cccc2Cl)nc1Nc1ccc(-c2nnc3n2CCCC3)cc1` [compound 109, 2-(2,6-Dichloro-phenyl)-5-[4-(5,6,7,8-tetrahydro-[1,2,4]triazolo[4,3-a]pyridin-3-yl)-phenylamino]-2H-[1,2,3]triazole-4-carboxylic acid amide], the figures for the IC50 in experiment [1], in experiment [2] and in experiment [3] were 100 to 1000 nM, 10 to 100 nM and below 10 nM, respectively.
`N#Cc1cccc(Cl)c1-n1nc(Nc2ccc(C(=O)N3CC[C@@H](F)C3)cc2)c(C(N)=O)n1` [compound 162, (R)-2-(2-chloro-6-cyanophenyl)-5-((4-(3-fluoropyrrolidine-1-carbonyl)phenyl)amino)-2H-1,2,3-triazole-4-carboxamide]: the 50% inhibitory concentration (IC50) in experiment [1] is 100 to 1000 nM; in experiment [2], 10 to 100 nM; in experiment [3] it was below 10 nM.
In the case of `NC(=O)c1nn(-c2c(Cl)cccc2Cl)cc1Nc1ccc(-c2nncn2CC(F)(F)F)cc1` [compound 210, 1-(2,6-dichlorophenyl)-4-((4-(4-(2,2,2-trifluoroethyl)-4H-1,2,4-triazol-3-yl)phenyl)amino)-1H-pyrazole-3-carboxamide], the IC50 in experiment [1] lay in the range of 100 to 1000 nM; in experiment [2] it was 100 to 1000 nM; in experiment [3], 10 to 100 nM.
Consider `CN=S1(=O)CCN(C(=O)c2ccc(Nc3nn(-c4c(Cl)cccc4Cl)nc3C(N)=O)cc2)CC1` [compound 171, 2-(2,6-dichlorophenyl)-5-((4-(1-(methylimino)-1-oxidothiomorpholine-4-carbonyl)phenyl)amino)-2H-1,2,3-triazole-4-carboxamide], for which the IC50 is 100 to 1000 nM in experiment [1], below 10 nM in experiment [2] and below 10 nM in experiment [3].
For `Cn1nnnc1-c1ccc(Nc2cn(-c3c(Cl)cccc3Cl)nc2C(N)=O)cc1` [compound 238, 1-(2,6-dichlorophenyl)-4-((4-(1-methyl-1H-tetrazol-5-yl)phenyl)amino)-1H-pyrazole-3-carboxamide], the IC50 was 100 to 1000 nM in experiment [1], 10 to 100 nM in experiment [2] and below 10 nM in experiment [3].
The matching figures for `NC(=O)c1nn(-c2c(Cl)cccc2Cl)nc1Nc1ccc(C(=O)N2CC(O)C2)cc1` [compound 124, 2-(2,6-dichlorophenyl)-5-((4-(3-hydroxyazetidine-1-carbonyl)phenyl)amino)-2H-1,2,3-triazole-4-carboxamide]: 100 to 1000 nM, 10 to 100 nM and below 10 nM.
In the same order, the values of `N#CC1CN(C(=O)c2ccc(Nc3nn(-c4c(Cl)cccc4Cl)nc3C(N)=O)cc2)C1` [compound 107, 5-[4-(3-Cyano-azetidine-1-carbonyl)-phenylamino]-2-(2,6-dichloro-phenyl)-2H-[1,2,3]triazole-4-carboxylic acid amide] are 100 to 1000 nM, 100 to 1000 nM and below 10 nM.
On to `NC(=O)c1nn(-c2c(Cl)ccc(F)c2Cl)nc1Nc1ccc(C(=O)N2CC[C@@H](F)C2)cc1` [compound 145, (R)-2-(2,6-dichloro-3-fluorophenyl)-5-((4-(3-fluoropyrrolidine-1-carbonyl)phenyl)amino)-2H-1,2,3-triazole-4-carboxamide], for which the IC50 was 100 to 1000 nM in experiment [1], below 10 nM in experiment [2] and 10 to 100 nM in experiment [3].
Regarding `NC(=O)c1nn(-c2c(Cl)ccc(F)c2Cl)nc1Nc1ccc(C(=O)N2CCOCC2)cc1` [compound 138, 2-(2,6-dichloro-3-fluorophenyl)-5-((4-(morpholine-4-carbonyl)phenyl)amino)-2H-1,2,3-triazole-4-carboxamide], the IC50 was 100 to 1000 nM in experiment [1], below 10 nM in experiment [2] and 10 to 100 nM in experiment [3].
On to `NC(=O)c1nn(-c2c(Cl)ccc(F)c2F)nc1Nc1ccc(C(=O)N2CC[C@@H](F)C2)cc1` [compound 167, (R)-2-(6-chloro-2,3-difluorophenyl)-5-((4-(3-fluoropyrrolidine-1-carbonyl)phenyl)amino)-2H-1,2,3-triazole-4-carboxamide], for which the IC50 in experiment [1] was 100 to 1000 nM; in experiment [2] it was 10 to 100 nM; in experiment [3] it was 10 to 100 nM.
Turning to `N#Cc1cccc(F)c1-n1nc(Nc2ccc(C(=O)N3CC[C@@H](F)C3)cc2)c(C(N)=O)n1` [compound 164, (R)-2-(2-cyano-6-fluorophenyl)-5-((4-(3-fluoropyrrolidine-1-carbonyl)phenyl)amino)-2H-1,2,3-triazole-4-carboxamide], the IC50 was 100 to 1000 nM in experiment [1], 10 to 100 nM in experiment [2] and 10 to 100 nM in experiment [3].
Turning to `N#Cc1cccc(Cl)c1-n1cc(Nc2ccc(C(=O)N3CCS(=O)(=O)CC3)cc2)c(C(N)=O)n1` [compound 457, 1-(2-chloro-6-cyanophenyl)-4-((4-(1,1-dioxidothiomorpholine-4-carbonyl)phenyl)amino)-1H-pyrazole-3-carboxamide], the results for the IC50 in experiment [1], in experiment [2] and in experiment [3] were 100 to 1000 nM, 10 to 100 nM and below 10 nM, respectively.
Consider `Cn1cnnc1-c1ccc(Nc2nn(-c3c(Cl)cccc3Cl)nc2C(N)=O)cc1` [compound 117, 2-(2,6-dichlorophenyl)-5-((4-(4-methyl-4H-1,2,4-triazol-3-yl)phenyl)amino)-2H-1,2,3-triazole-4-carboxamide], for which the IC50 was in the range of 100 to 1000 nM in experiment [1], 10 to 100 nM in experiment [2] and 10 to 100 nM in experiment [3].
`CN1CCC(Oc2ccc(Nc3nn(-c4c(Cl)cccc4Cl)nc3C(N)=O)cc2)CC1` [compound 114, 2-(2,6-dichlorophenyl)-5-((4-((1-methylpiperidin-4-yl)oxy)phenyl)amino)-2H-1,2,3-triazole-4-carboxamide]: the IC50 in experiment [1] was 100 to 1000 nM; in experiment [2], below 10 nM; in experiment [3], below 10 nM.
In the case of `NC(=O)c1nn(-c2c(Cl)cccc2Cl)nc1Nc1ccc(C(=O)N2CCS(=O)(=O)CC2)cc1` [compound 163, 2-(2,6-dichlorophenyl)-5-((4-(1,1-dioxidothiomorpholine-4-carbonyl)phenyl)amino)-2H-1,2,3-triazole-4-carboxamide], the IC50 in experiment [1] is 100 to 1000 nM; in experiment [2], below 10 nM; in experiment [3], below 10 nM.
As for `NC(=O)c1nn(-c2c(Cl)cccc2Cl)cc1Nc1ccc(C(=O)N2CCS(=O)(=O)CC2)cc1` [compound 451, 1-(2,6-dichlorophenyl)-4-((4-(1,1-dioxidothiomorpholine-4-carbonyl)phenyl)amino)-1H-pyrazole-3-carboxamide], the IC50 in experiment [1] is 100 to 1000 nM; in experiment [2], below 10 nM; in experiment [3], below 10 nM.
